Test results from patent US9487530B2, “Transient protection of normal cells during chemotherapy” (G1 Therapeutics, Inc., priority 2013, dated 2016).

Columns and labels:
[1] = test system: blood cell counts; assay: 5FU-induced myelosuppression, repeated cycles; assay type: in vivo, mouse; settings: 150 mg/kg oral + 5FU 150 mg/kg every 21 days, 3 cycles; Day 10 of third cycle
Excerpt: This was repeated every 21 days for 3 cycles. Blood samples were taken for hematology analysis on Day 10 of Cycles 1-3.

[2] = test system: human renal proximal tubule cells; assay: Cell cycle of renal proximal tubule cells with etoposide or cisplatin; assay type: cell-based; settings: 10-1000 nM in combination with etoposide or cisplatin
Procedure: The ability of Cdk4/6 inhibitors to protect human renal proximal tubule cells from chemotherapy induced DNA damage was analyzed using etoposide and cisplatin. […] At the conclusion of the experiment, cells were harvested, fixed, and stained with propidium iodide (a DNA intercalator), which fluoresces strongly red (emission maximum 637 nm) when excited by 488 nm light. Samples were run on Dako Cyan flow cytometer.

[3] = test system: A2058 cells (CDK4/6-independent cell line); assay: Cell cycle arrest (propidium iodide), A2058; assay type: cell-based; settings: 300 nM for 24 hours
Excerpt: (§1) To test the ability of Cdk4/6 inhibitors to induce a clean G1-arrest, a cell based screening method was used consisting of two Cdk4/6-dependent cell lines (tHS68 and WM2664; Rb-positive) and one Cdk4/6-independent (A2058; Rb-negative) cell line. […] At the conclusion of the experiment, cells were harvested, fixed, and stained with propidium iodide (a DNA intercalator), which fluoresces strongly red (emission maximum 637 nm) when excited by 488 nm light. Samples were run on Dako Cyan flow cytometer and >10,000 events were collected for each sample. Data were analyzed using FlowJo 2.2 software developed by TreeStar, Inc.

[4] = test system: WM2664 cells (CDK4/6-dependent cell line); assay: Cell cycle arrest (propidium iodide), WM2664; assay type: cell-based; settings: 300 nM for 24 hours
Excerpt: as §1

[5] = Metabolic stability in liver microsomes; assay type: in vitro ADME; settings: each of the species tested (human, monkey, dog, rat, mouse); 1 uM
Procedure: Human, mouse, and dog liver microsomes were purchased from Xenotech, and Sprague-Dawley rat liver microsomes were prepared by Absorption Systems. The reaction mixture comprising 0.5 mg/mL of liver microsomes, 100 mM of potassium phosphate, pH 7.4, 5 mM of magnesium chloride, and 1 uM of test compound was prepared. The test compound was added into the reaction mixture at a final concentration of 1 uM. An aliquot of the reaction mixture (without cofactor) was incubated in shaking water bath at 37 deg. C. for 3 minutes. The control compound, testosterone, was run simultaneously with the test compound in a separate reaction. The reaction was initiated by the addition of cofactor (NADPH), and the mixture was then incubated in a shaking water bath at 37 deg. C. Aliquots (100 μL) were withdrawn at 0, 10, 20, 30, and 60 minutes for the test compound and 0, 10, 30, and 60 minutes for testosterone. […] Test compound samples were analyzed using the Orbitrap high resolution mass spectrometer to quantify the disappearance of parent test compound and detect the appearance of metabolites. […] Half-lives were calculated using GraphPad software, fitting to a single-phase exponential decay equation.
When calculated half-life was longer than the duration of the experiment, the half-life was expressed as >the longest incubation time. The calculated half-life is also listed in parentheses. […]

With CN1CCN(c2ccc(Nc3ncc4cc5n(c4n3)C3(CCCCC3)CNC5=O)nc2)CC1 [T, 2′-((5-(4-methylpiperazin-1-yl)pyridin-2-yl)amino)-7′,8′-dihydro-6′H-spiro[cyclohexane-1,9′-pyrazino[1′,2′:1,5]pyrrolo[2,3-d]pyrimidin]-6′-one] the “myelosuppression with repeated 5FU” value [1] was “reduced the myelosuppression”, the cell cycle distribution [2] was “decrease in the percentage of S-phase cells, with a corresponding rise in the percentage of cells in the G0-G1 phase” and the S-phase peak [3] was “does not cause a loss of the S-phase peak”. The S-phase peak [4] was “causes a loss of the S-phase peak” and the “half-life in liver microsomes” value [5] was “shorter half-life than PD0332991”.
